# From US11312723B2, “Pyranopyrazole and pyrazolopyridine immunomodulators for treatment of autoimmune diseases” (The Rockefeller University, priority 2017, dated 2022)
# Target: Human FXIIa (Homo sapiens (Human), UniProt P00748)
# Test: Factor XIIa (FXIIa) inhibitory activity, chromogenic substrate (Pefachrome XIIa) cleavage
# Type: biochemical
# Conditions: 10 min pre-incubation, Pefachrome XIIa 400 μM
# Protocol: Factor XIIa (FXIIa) Inhibitory Activity:
# In a 96-well clear bottom plate, 80 μl of assay buffer was added to each well. Assay buffer consists of 0.5× Hank's Balanced Salt Solution (Invitrogen), buffered with 25 mM HEPES pH 7.4 (Invitrogen) and 0.5× Tris-buffered saline with Tween-20 0.05% (Santa Cruz Biotechnology). Test compounds were first dissolved in DMSO (Sigma) and then 4 μl were added to test wells containing assay buffer. Serial dilutions using an automated multi-channel pipette were used to generate a concentration range of approximately 1-100 μM. Human FXIIa (Enzyme Research Labs) was diluted in assay buffer to a final concentration of 12.5 nM. 80 μl of this enzyme solution was added to the assay wells. The enzyme/compound mixtures were incubated for 10 minutes at room temperature. Chromogenic substrate (Pefachrome XIIa; Enzyme Research Labs) was added to assay wells at a final concentration of 400 μM. The assay plate was spun for 1 minute at 1500 g and then read at 37° C. in a SpectraMax M2 plate reader (λ=405 nm). Activity was quantified as the rate of change in absorbance, which corresponds to the rate of substrate cleavage. IC50 values were determined as the concentration of inhibitor that produced 50% of the rate of change of control wells without any inhibitor. For compounds with activity <1 μM, the assay was repeated with a lower concentration range, typically from 10-1000 nM.
# Chain of Human FXIIa (P00748 373-615): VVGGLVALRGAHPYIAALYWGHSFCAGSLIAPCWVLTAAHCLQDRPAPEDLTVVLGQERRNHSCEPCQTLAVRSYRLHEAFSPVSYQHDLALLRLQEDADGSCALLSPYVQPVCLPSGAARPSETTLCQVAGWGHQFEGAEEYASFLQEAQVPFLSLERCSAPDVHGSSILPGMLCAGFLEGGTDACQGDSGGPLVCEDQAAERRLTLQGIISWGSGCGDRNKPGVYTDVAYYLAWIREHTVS
# Chain of Human FXIIa (P00748 20-372 partner): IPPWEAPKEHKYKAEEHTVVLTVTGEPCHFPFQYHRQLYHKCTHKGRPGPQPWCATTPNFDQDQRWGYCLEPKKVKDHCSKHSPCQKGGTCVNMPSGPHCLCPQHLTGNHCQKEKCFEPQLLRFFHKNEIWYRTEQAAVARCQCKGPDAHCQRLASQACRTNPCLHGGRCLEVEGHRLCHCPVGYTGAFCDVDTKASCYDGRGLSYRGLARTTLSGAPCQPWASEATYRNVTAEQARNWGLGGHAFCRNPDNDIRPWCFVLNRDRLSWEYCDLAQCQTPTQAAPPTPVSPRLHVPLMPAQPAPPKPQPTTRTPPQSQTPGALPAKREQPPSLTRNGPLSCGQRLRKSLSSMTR
row,Compound,IC50 [µM]
1,"Cc1cccc2c1NCCC2C(=O)n1nc2c(c1N)CCN(S(C)(=O)=O)C2 (single isomer, unassigned) [Example 36, (R*)-(3-amino-6-(methylsulfonyl)-4,5,6,7-tetrahydropyrazolo[3,4-c]pyridin-2-yl)(8-methyl-1,2,3,4-tetrahydroquinolin-4-yl)methanone]",17
2,"Nc1c2c(nn1C(=O)[C@@H]1CCNc3c(Cl)cccc31)COCC2 (single isomer, unassigned) [Example 201, (R*)-(3-amino-4,5-dihydropyrano[3,4-c]pyrazol-2(7H)-yl)(8-chloro-1,2,3,4-tetrahydro-quinolin-4-yl)methanone]",16
3,"Cc1cc(F)cc2c1NCCC2C(=O)n1nc2c(c1N)CCOC2 (single isomer, unassigned) [Example 77, (R*)-(3-amino-4,5-dihydropyrano[3,4-c]pyrazol-2(7H)-yl)(6-fluoro-8-methyl-1,2,3,4-tetrahydroquinolin-4-yl)methanone]",70
4,"Cc1cc2c(C(=O)n3nc(N)c4c3CN(C(=O)OC(C)(C)C)CC4)cccc2[nH]1 [Example 8, tert-butyl 3-amino-1-(2-methyl-1H-indole-4-carbonyl)-4,5-dihydro-1H-pyrazolo[3,4-c]pyridine-6(7H)-carboxylate]",50
5,"Cc1cccc2c1NCC[C@H]2C(=O)n1nc2c(c1N)CCN(S(=O)(=O)C1COC1)C2 (single isomer, unassigned) [Example 186, (R*)-(3-amino-6-(oxetan-3-ylsulfonyl)-4,5,6,7-tetrahydro-pyrazolo[3,4-c]pyridin-2-yl)(8-methyl-1,2,3,4-tetrahydro-quinolin-4-yl)methanone]",40
6,"Cc1cccc2c1NCC[C@@H]2C(=O)n1nc2c(c1N)COCC2 (single isomer, unassigned) [Example 190, (S*)-(3-amino-6,7-dihydropyrano[4,3-c]pyrazol-2(4H)-yl)(8-methyl-1,2,3,4-tetrahydro-quinolin-4-yl)methanone]",0.05
7,"Cc1cccc2c1NCC[C@H]2C(=O)n1nc2c(c1N)CCOC2 (single isomer, unassigned) [Example 199, (R*)-(3-amino-4,5-dihydropyrano[3,4-c]pyrazol-2(7H)-yl)(8-methyl-1,2,3,4-tetrahydro-quinolin-4-yl)methanone]",80
8,"Nc1c2c(nn1C(=O)C1CCNc3c(Cl)cccc31)CNCC2 (single isomer, unassigned) [Example 73, (R*)-(3-amino-4,5,6,7-tetrahydropyrazolo[3,4-c]pyridin-2-yl)(8-chloro-1,2,3,4-tetrahydroquinolin-4-yl)methanone]",7
9,"Cc1cc(F)cc2c1NCC[C@@H]2C(=O)n1nc2c(c1N)CNCC2 (single isomer, unassigned) [Example 82, (S*)-(3-amino-4,5,6,7-tetrahydropyrazolo[4,3-c]pyridin-2-yl)(6-fluoro-8-methyl-1,2,3,4-tetrahydroquinolin-4-yl)methanone]",0.07
10,"Cc1cccc2c1NCC[C@H]2C(=O)n1nc2c(c1N)CCN(S(=O)(=O)C1CCC1)C2 (single isomer, unassigned) [Example 183, (R*)-(3-amino-6-(cyclobutyl-sulfonyl)-4,5,6,7-tetrahydro-pyrazolo[3,4-c]pyridin-2-yl)(8-methyl-1,2,3,4-tetrahydro-quinolin-4-yl)methanone]",35
11,"COc1cccc2c1NCCC2C(=O)n1nc2c(c1N)CCN(S(C)(=O)=O)C2 (single isomer, unassigned) [Example 64, (R*)-(3-amino-6-(methylsulfonyl)-4,5,6,7-tetrahydropyrazolo[3,4-c]pyridin-2-yl)(8-methoxy-1,2,3,4-tetrahydroquinolin-4-yl)methanone]",35
12,"Cc1cccc2c1NCCC2C(=O)n1nc(N)c2c1CCOC2 (centres unmarked) [Example 189, (3-amino-6,7-dihydropyrano[4,3-c]pyrazol-1(4H)-yl)(8-methyl-1,2,3,4-tetrahydro-quinolin-4-yl)methanone]",40
13,"Cc1cccc2c1NCCC2C(=O)n1nc2c(c1N)CCN(S(C)(=O)=O)C2C (single isomer, unassigned) [Example 78, (3-amino-7-methyl-6-(methylsulfonyl)-4,5,6,7-tetrahydropyrazolo[3,4-c]pyridin-2-yl)(8-methyl-1,2,3,4-tetrahydroquinolin-4-yl)methanone]",> 80
14,"Cc1cc(F)cc2c1NCC[C@H]2C(=O)n1nc2c(c1N)COCC2 (single isomer, unassigned) [Example 192, (R*)-(3-amino-6,7-dihydropyrano[4,3-c]pyrazol-2(4H)-yl)(6-fluoro-8-methyl-1,2,3,4-tetrahydro-quinolin-4-yl)methanone]",12.5

# Now from value to molecule:
row,IC50 [µM],Compound
1,17,"Nc1nn(C(=O)C2CCNc3ccc(F)cc32)c2c1CCN(S(=O)(=O)CC(F)F)C2 (centres unmarked) [Example 143, (3-amino-6-(2,2-difluoroethyl-sulfonyl)-4,5,6,7-tetrahydro-pyrazolo[3,4-c]pyridin-1-yl)(6-fluoro-1,2,3,4-tetrahydro-quinolin-4-yl)methanone]"
2,8.5,"CC(=O)Nc1ccc2c(c1)C(C(=O)n1nc3c(c1N)CCN(S(C)(=O)=O)C3)CCN2 (centres unmarked) [Example 47, N-(4-(3-amino-6-(methylsulfonyl)-4,5,6,7-tetrahydro-2H-pyrazolo[3,4-c]pyridine-2-carbonyl)-1,2,3,4-tetrahydroquinolin-6-yl)acetamide]"
3,11,Cc1cccc2c1NCCC2C(=O)n1nc(N)c2c1CN(S(=O)(=O)C1CCC1)CC2 (centres unmarked) [Example 184]
4,7,"CC(C)S(=O)(=O)N1CCc2c(N)nn(C(=O)C3CCNc4ccc(F)cc43)c2C1 (centres unmarked) [Example 137, (3-amino-6-(isopropyl-sulfonyl)-4,5,6,7-tetrahydro-pyrazolo[3,4-c]pyridin-1-yl)(6-fluoro-1,2,3,4-tetrahydro-quinolin-4-yl)methanone]"
5,4.5,"CCN1CCc2c(N)nn(C(=O)C3CCNc4c(C)cc(F)cc43)c2C1 (centres unmarked) [Example 172, (3-amino-6-ethyl-4,5,6,7-tetrahydro-pyrazolo[3,4-c]pyridin-1-yl)(6-fluoro-8-methyl-1,2,3,4-tetrahydro-quinolin-4-yl)methanone]"
6,> 100,"CCc1cccc2c1NCCC2C(=O)n1nc(N)c2c1CN(S(C)(=O)=O)CC2 (centres unmarked) [Example 66, (3-amino-6-(methylsulfonyl)-4,5,6,7-tetrahydropyrazolo[3,4-c]pyridin-1-yl)(8-ethyl-1,2,3,4-tetrahydroquinolin-4-yl)methanone]"
7,> 65,"COc1cccc2c1NCCC2C(=O)n1nc(N)c2c1CN(S(C)(=O)=O)CC2 (centres unmarked) [Example 62, (3-amino-6-(methylsulfonyl)-4,5,6,7-tetrahydropyrazolo[3,4-c]pyridin-1-yl)(8-methoxy-1,2,3,4-tetrahydroquinolin-4-yl)methanone]"
8,75,"Cn1cc2c(c1)C(C(=O)n1nc(N)c3c1CN(S(C)(=O)=O)CC3)CCC2 (centres unmarked) [Example 27, (3-amino-6-(methylsulfonyl)-4,5,6,7-tetrahydropyrazolo[3,4-c]pyridin-1-yl)(2-methyl-4,5,6,7-tetrahydro-2H-isoindol-4-yl)methanone]"
9,> 80,"CS(=O)(=O)N1CCc2c(N)nn(C(=O)C3CCNc4ncccc43)c2C1 (centres unmarked) [Example 42, (3-amino-6-(methylsulfonyl)-4,5,6,7-tetrahydropyrazolo[3,4-c]pyridin-1-yl)(1,2,3,4-tetrahydro-1,8-naphthyridin-4-yl)methanone]"
10,20,"Nc1nn(C(=O)C2CCNc3ccc(F)cc32)c2c1CCNC2 (centres unmarked) [Example 148, (3-amino-4,5,6,7-tetrahydro-pyrazolo[3,4-c]pyridin-1-yl)(6-fluoro-1,2,3,4-tetrahydro-quinolin-4-yl)methanone]"
11,14,"Nc1nn(C(=O)C2CCNc3ccc(F)cc32)c2c1CCN(S(=O)(=O)c1ccncc1)C2 (centres unmarked) [Example 156, (3-amino-6-(pyridin-4-ylsulfonyl)-4,5,6,7-tetrahydro-pyrazolo[3,4-c]pyridin-1-yl)(6-fluoro-1,2,3,4-tetrahydro-quinolin-4-yl)methanone]"
12,45,"CS(=O)(=O)N1CCc2c(N)nn(C(=O)C3CCCc4[nH]c(Cl)cc43)c2C1 (centres unmarked) [Example 133, (3-amino-6-(methylsulfonyl)-4,5,6,7-tetrahydro-pyrazolo[3,4-c]pyridin-1-yl)(2-chloro-4,5,6,7-tetrahydro-1H-indol-4-yl)methanone]"
13,12,"CCN1CCc2c(N)nn(C(=O)C3CCNc4ccc(F)cc43)c2C1 (centres unmarked) [Example 164, (3-amino-6-ethyl-4,5,6,7-tetrahydro-pyrazolo[3,4-c]pyridin-1-yl)(6-fluoro-1,2,3,4-tetrahydro-quinolin-4-yl)methanone]"
14,40,"CCc1ccc2c(c1)C(C(=O)n1nc(N)c3c1CN(S(C)(=O)=O)CC3)CCN2 (centres unmarked) [Example 31, (3-amino-6-(methylsulfonyl)-4,5,6,7-tetrahydropyrazolo[3,4-c]pyridin-1-yl)(6-ethyl-1,2,3,4-tetrahydroquinolin-4-yl)methanone]"
15,10,"CCN1CCc2c(nn(C(=O)[C@@H]3CCNc4ccc(F)cc43)c2N)C1 (single isomer, unassigned) [Example 166, (R*)-(3-amino-6-ethyl-4,5,6,7-tetrahydro-pyrazolo[3,4-c]pyridin-2-yl)(6-fluoro-1,2,3,4-tetrahydro-quinolin-4-yl)methanone]"
